Assay results from patent US20230048366A1, “COMBINATION THERAPY FOR TREATING OR PREVENTING CANCER” (4D Pharma Research Limited, priority 2018, published 2023).

How the values were obtained:
RENCA tumour cells = test: Antitumor activity, RENCA model (tumour volume); type: in vivo, mouse; settings: D18 and D22, compared to untreated and vehicle groups, FIG. 3B
Experimental: Treatment schedule—The start of first dosing was considered as D0. On D0, non-engrafted mice were randomized according to their individual body weight into groups of 9 mice using Vivo Manager® software (Biosystemes, Couternon, France). On D0, the mice received vehicle (culture medium) or bacterial strain (2×10^8 in 200 μL, PO). On D14, all mice were engrafted with RENCA tumour cells injected SC into the ventral surface of the lower flank as described below. Treatment with anti-CTLA-4 (10 mg/kg, IP) and anti-PDL1 (clone 10F.9G2, 10 mg/kg) was initiated when tumours reached a volume of 50-70 mm3.
Orthotopic induction of RENCA tumor cells in animals by SC injection—On D14, one million (1×10^6) RENCA tumor cells in 50 μL RPMI 1640 medium were transplanted via SC injection into the ventral surface of the lower flank of mice.
Euthanasia—Each mouse was euthanized when it reached a humane endpoint as described in section below, or after a maximum of 6 weeks post start of dosing.
Evaluation of tumour burden at euthanasia—At the time of termination, tumours were collected and their volume evaluated.
Clinical monitoring—The length and width of the tumour was measured twice a week with callipers and the volume of the tumour was estimated by this formula [52]: […]

immature dendritic cells = test: Cytokine production in immature dendritic cells; type: cell-based; settings: MRX518 10^7/ml, LPS 100 ng/ml
Experimental: This study tested the effect of the bacterial strain MRX518 alone and in combination with lipopolysaccharide (LPS) on cytokine production in immature dendritic cells.
A monocyte population was isolated from peripheral blood mononuclear cells (PBMCs). The monocyte cells were subsequently differentiated into immature dendritic cells. The immature dendritic cells were plated out at 200,000 cells/well and incubated with MRX518 at a final concentration of 10^7/ml, with the optional addition of LPS at a final concentration of 100 ng/ml. The negative control involved incubating the cells with RPMI media alone and positive controls incubated the cells with LPS at a final concentration of 100 ng/ml. The cytokine content of the cells was then analysed.

[1] = compared to the negative control, FIGS. 4a-d

Row | Compound | tumour size (RENCA tumour cells) | level of IL-1β (immature dendritic cells; FIGS. 4b, 4d) | level of IL-6 (immature dendritic cells; [1]) | level of TNF-α (immature dendritic cells; [1])
1 | CC(=O)O[C@H]1C(=O)[C@@]2(C)[C@H]([C@H](OC(=O)c3ccccc3)[C@]3(O)C[C@H](OC(=O)[C@H](O)[C@@H](NC(=O)c4ccccc4)c4ccccc4)C(C)=C1C3(C)C)[C@]1(OC(C)=O)CO[C@@H]1C[C@@H]2O [Paclitaxel] | (almost) complete reduction in tumour size | – | – | –
2 | lipopolysaccharide [LPS] | – | not IL-1β | increase | increase
